Assays:
Type in all cases: functional
[1] = tested on: NCI-H23; assay: Growth inhibition of human NCI-H23 cells assessed as cell growth at 10 uM after 48 hrs by SRB assay; details: NCI-H23, 48 h, read-out: Activity
[2] = tested on: 786-0; assay: Growth inhibition of human 786-0 cells assessed as cell growth at 10 uM after 48 hrs by SRB assay; details: 786-0, 48 h, read-out: Activity
[3] = tested on: OVCAR-5; assay: Growth inhibition of human OVCAR5 cells assessed as cell growth at 10 uM after 48 hrs by SRB assay; details: OVCAR-5, 48 h, read-out: Activity
[4] = tested on: NCI-H522; assay: Growth inhibition of human NCI-H522 cells assessed as cell growth at 10 uM after 48 hrs by SRB assay; details: NCI-H522, 48 h, read-out: Activity
[5] = tested on: PC-3; assay: Growth inhibition of human PC3 cells assessed as cell growth at 10 uM after 48 hrs by SRB assay; details: PC-3, 48 h, read-out: Activity
[6] = tested on: OVCAR-8; assay: Growth inhibition of human OVCAR8 cells assessed as cell growth at 10 uM after 48 hrs by SRB assay; details: OVCAR-8, 48 h, read-out: Activity
[7] = tested on: A498; assay: Growth inhibition of human A498 cells assessed as cell growth at 10 uM after 48 hrs by SRB assay; details: A498, 48 h, read-out: Activity
[8] = tested on: NCI-H460; assay: Growth inhibition of human NCI-H460 cells assessed as cell growth at 1 mM after 48 hrs by SRB assay; details: NCI-H460, 48 h, read-out: Activity
[9] = tested on: CCRF-CEM; assay: Growth inhibition of human CCRF-CEM cells assessed as cell growth at 0.1 uM after 48 hrs by SRB assay; details: read-out: Activity
[10] = tested on: HOP-92; assay: Growth inhibition of human HOP92 cells assessed as cell growth at 1 mM after 48 hrs by SRB assay; details: HOP-92, 48 h, read-out: Activity
[11] = tested on: SK-MEL-5; assay: Growth inhibition of human SK-MEL-5 cells assessed as cell growth at 1 uM after 48 hrs by SRB assay; details: SK-MEL-5, 48 h, read-out: Activity
[12] = tested on: DU-145; assay: Growth inhibition of human DU145 cells after 48 hrs by […] growth inhibition assay; details: DU-145, 48 h
[13] = tested on: BT-549; assay: Growth inhibition of human BT549 cells assessed as cell growth at 100 uM after 48 hrs by SRB assay; details: BT-549, 48 h, read-out: Activity
[14] = tested on: U-251; assay: Growth inhibition of human U251 cells after 48 hrs by […] growth inhibition assay; details: U-251, 48 h
[15] = tested on: NCI-H322M; assay: Growth inhibition of human NCI-H322M cells assessed as cell growth at 0.1 uM after 48 hrs by SRB assay; details: read-out: Activity
[16] = tested on: SK-OV-3; assay: Growth inhibition of human SKOV3 cells assessed as cell growth at 100 uM after 48 hrs by SRB assay; details: SK-OV-3, 48 h, read-out: Activity
[17] = tested on: HCT-15; assay: Growth inhibition of human HCT15 cells assessed as cell growth at 1 mM after 48 hrs by SRB assay; details: HCT-15, 48 h, read-out: Activity
[18] = tested on: DU-145; assay: Growth inhibition of human DU145 cells assessed as cell growth at 1 uM after 48 hrs by SRB assay; details: DU-145, 48 h, read-out: Activity
[19] = tested on: OVCAR-3; assay: Growth inhibition of human OVCAR3 cells after 48 hrs by […] growth inhibition assay; details: OVCAR-3, 48 h
[20] = tested on: CCRF-CEM; assay: Growth inhibition of human CCRF-CEM cells assessed as cell growth at 1 mM after 48 hrs by SRB assay; details: read-out: Activity
[21] = tested on: CAKI-1; assay: Growth inhibition of human Caki1 cells assessed as cell growth at 1 uM after 48 hrs by SRB assay; details: CAKI-1, 48 h, read-out: Activity
[22] = tested on: OVCAR-4; assay: Growth inhibition of human OVCAR4 cells after 48 hrs by […] growth inhibition assay; details: OVCAR-4, 48 h
[23] = tested on: M14; assay: Growth inhibition of human M14 cells assessed as cell growth at 1 mM after 48 hrs by SRB assay; details: M14, 48 h, read-out: Activity
[24] = tested on: OVCAR-4; assay: Growth inhibition of human OVCAR4 cells assessed as cell growth at 100 uM after 48 hrs by SRB assay; details: OVCAR-4, 48 h, read-out: Activity
[25] = tested on: BT-549; assay: Growth inhibition of human BT549 cells assessed as cell growth at 1 mM after 48 hrs by SRB assay; details: BT-549, 48 h, read-out: Activity
[26] = tested on: NCI/ADR-RES; assay: Growth inhibition of human NCI/ADR-RES cells after 48 hrs by SRB assay
[27] = tested on: OVCAR-5; assay: Growth inhibition of human OVCAR5 cells after 48 hrs by […] growth inhibition assay; details: OVCAR-5, 48 h
[28] = tested on: SK-OV-3; assay: Growth inhibition of human SKOV3 cells assessed as cell growth at 1 mM after 48 hrs by SRB assay; details: SK-OV-3, 48 h, read-out: Activity
[29] = tested on: NCI/ADR-RES; assay: Growth inhibition of human NCI/ADR-RES cells assessed as cell growth at 0.1 uM after 48 hrs by SRB assay; details: read-out: Activity
[30] = tested on: BT-549; assay: Growth inhibition of human BT549 cells after 48 hrs by […] growth inhibition assay; details: BT-549, 48 h
[31] = tested on: COLO 205; assay: Growth inhibition of human COLO205 cells assessed as cell growth at 1 uM after 48 hrs by SRB assay; details: COLO 205, 48 h, read-out: Activity
[32] = tested on: HT-29; assay: Growth inhibition of human HT-29 cells assessed as cell growth at 0.1 uM after 48 hrs by SRB assay; details: HT-29, 48 h, read-out: Activity
[33] = read-out: LC50 (the source's name)
[34] = read-out: pLC50 (the source's name) (converted)

Compound CNC(=O)OC[C@H]1O[C@@H](n2cnc3c(NC(=O)Nc4ccccc4)ncnc32)[C@H](O[Si](C)(C)C(C)(C)C)[C@@H]1O[Si](C)(C)C(C)(C)C has a growth at 10 µM [1] of 98%, a growth at 10 µM [2] of 94.6% and a growth at 10 µM [3] of 120%. For the same compound, the growth at 10 µM [4] was 52.6%, the growth at 10 µM [5] was 58.9% and the growth at 10 µM [6] was 88.8%. The growth at 10 µM [7] was 98.4%.

For CNC(=O)NC[C@H]1O[C@@H](n2cnc3c(NC(=O)Nc4ccccc4)ncnc32)[C@H](O[Si](C)(C)C(C)(C)C)[C@@H]1CC(=O)N(C)OC, the growth at 1000 µM [8] was 25%, the growth at 0.1 µM [9] was 101% and the growth at 1000 µM [10] was -43%. It also gave a growth at 10 µM [1] of 99%, a growth at 1 µM [11] of 98% and a GI50 ([12]; read-out: GI50) of 16.6 µM. It also gave a CC50 [12, 33] of over 100 µM, a TGI ([12]; read-out: TGI) of over 100 µM and a GI50 ([12]; read-out: pGI50 (converted)) of 16.6 µM. The CC50 [12, 34] was over 100 µM, the TGI ([12]; read-out: pTGI (converted)) was over 100 µM and the growth at 10 µM [2] was 93%. The growth at 100 µM [13] was 70%, the GI50 ([14]; read-out: GI50) was 5.66 µM and the CC50 [14, 33] was over 100 µM. It also gave a TGI ([14]; read-out: TGI) of over 100 µM, a GI50 ([14]; read-out: pGI50 (converted)) of 5.62 µM and a CC50 [14, 34] of over 100 µM. For the same compound, the TGI ([14]; read-out: pTGI (converted)) was over 100 µM, the growth at 10 µM [3] was 92% and the growth at 0.1 µM [15] was 97%. The growth at 100 µM [16] was 82%, the growth at 10 µM [4] was 84% and the growth at 1000 µM [17] was 37%. The growth at 1 µM [18] was 112%, the GI50 ([19]; read-out: GI50) was 7.11 µM and the CC50 [19, 33] was over 100 µM. It also gave a TGI ([19]; read-out: TGI) of over 100 µM, a GI50 ([19]; read-out: pGI50 (converted)) of 7.08 µM and a CC50 [19, 34] of over 100 µM. It also gave a TGI ([19]; read-out: pTGI (converted)) of over 100 µM, a growth at 1000 µM [20] of 23% and a growth at 1 µM [21] of 72%. The GI50 ([22]; read-out: GI50) was 53 µM, the CC50 [22, 33] was over 100 µM and the TGI ([22]; read-out: TGI) was over 100 µM. The GI50 ([22]; read-out: pGI50 (converted)) was 52.5 µM, the CC50 [22, 34] was over 100 µM and the TGI ([22]; read-out: pTGI) was over 100 µM. It also gave a growth at 1000 µM [23] of 18%, a growth at 100 µM [24] of 60% and a growth at 1000 µM [25] of 26%. For the same compound, the GI50 ([26]; read-out: GI50) was over 100 µM, the CC50 [26, 33] was over 100 µM and the TGI ([26]; read-out: TGI) was over 100 µM. It also gave a GI50 ([26]; read-out: pGI50 (converted)) of over 100 µM, a CC50 [26, 34] of over 100 µM and a TGI ([26]; read-out: pTGI (converted)) of over 100 µM. The GI50 ([27]; read-out: GI50) was 38.2 µM, the CC50 [27, 33] was over 100 µM and the TGI ([27]; read-out: TGI) was over 100 µM. The GI50 ([27]; read-out: pGI50 (converted)) was 38 µM, the CC50 [27, 34] was over 100 µM and the TGI ([27]; read-out: pTGI (converted)) was over 100 µM. For the same compound, the growth at 1000 µM [28] was 38%, the growth at 10 µM [6] was 103% and the growth at 0.1 µM [29] was 109%. It also gave a growth at 10 µM [7] of 87%, a GI50 ([30]; read-out: GI50) of 29 µM and a CC50 [30, 33] of over 100 µM. The TGI ([30]; read-out: TGI) was over 100 µM, the GI50 ([30]; read-out: pGI50 (converted)) was 28.8 µM and the CC50 [30, 34] was over 100 µM. It also gave a TGI ([30]; read-out: pTGI (converted)) of over 100 µM, a growth at 1 µM [31] of 93% and a growth at 0.1 µM [32] of 104%.
